Data taken from PMC7763995 (Molecules, 2020).

Tests used:
[1] = test system: Porcine liver CES; assay: In vitro CES inhibition, 4-NPA substrate; type: biochemical; conditions: compound concentration 20 µM; n.a. = not active
Procedure: (§1) Measurements were performed with a FLUOStar Optima microplate reader (BMG Labtech, Ortenberg, Germany). Compounds were dissolved in DMSO, the incubation mixture contained 2% solvent.

[2] = FRAP (ferric reducing antioxidant power) assay; conditions: 20 µM, 1 h incubation; ratio of concentrations of Trolox and test compound with same effect
Procedure: The FRAP (ferric reducing antioxidant power) assay proposed by Benzie and Strain [80, 81] was modified to be performed in 96-well microplates. The FRAP reagent contained 2.5 mL of 10 mM TPTZ (2,4,6-tris(2-pyridyl)-s-triazine (Sigma-Aldrich) solution in 40 mM HCl, 2.5 mL of 20 mM FeCl3 (Sigma-Aldrich) in distilled water and 25 mL of 0.3 M acetate buffer (pH 3.6). In 96-well microplates, 10 µL aliquots of the substance under investigation (compounds 7, 8 or reference substance) dissolved in DMSO (0.5 mM) were placed in quadruplicate. The FRAP reagent (240 µL) freshly prepared and warmed to 37°C was added to three of these samples, while the same volume of acetate buffer was added to the fourth one (blank). Consequently, the concentration of the substance in a plate was 20 µM. The absorbance at 600 nm was monitored spectrophotometrically with a FLUOStar OPTIMA microplate reader at 37°C for an hour with an interval of 5–10 min. Data in Table 2 are given for 1 h of incubation of compounds with FRAP reagent. The absorbances of the blanks and those of the mixture of 240 µL FRAP reagent plus 10 µL DMSO were subtracted from the absorbances of the samples at each time interval to calculate the absorbance change. Standard antioxidants Trolox and BHT dissolved in DMSO and analyzed as described above were used as reference compounds. A calibration curve with linear formula y = 0.03x (R^2 = 0.998, p < 0.0001) was obtained for Trolox solution in DMSO in the range 2.5–100 µM and the results were expressed as FRAP units (the values calculated as the ratio of the concentrations of Trolox and the test compound resulting in the same effect.)

[3] = molecular target: T1, Human erythrocyte AChE (Homo sapiens, UniProt P22303); assay: Kinetic study of AChE inhibition, steady-state inhibition constants; type: biochemical
T1 construct: AChE from human erythrocytes was used; purchased Sigma-Aldrich; host or cells: human erythrocytes
Procedure: (§2) Mechanisms of human erythrocyte AChE and equine serum BChE inhibition were assessed via a thorough analysis of enzyme kinetics. Residual activity was measured following 5 min incubation at 25°C (for temperature equilibration) with three increasing concentrations of inhibitor and six decreasing substrate concentrations. Substrate was added immediately after the 5 min incubation with inhibitor and the rates of absorption were monitored at 412 nm using a FLUOStar OPTIMA microplate reader.

[4] = ABTS radical cation scavenging activity assay; conditions: 1 h incubation
Procedure: Radical scavenging activity of the compounds was assessed using the ABTS radical decolorization assay with some modifications. ABTS was purchased from Tokyo Chemical Industry Co., Ltd. (Tokyo, Japan), potassium persulfate (dipotassium peroxodisulfate), Trolox (6-hydroxy-2,5,7,8-tetramethychroman-2-carboxylic acid), and HPLC-grade ethanol were obtained from Sigma-Aldrich. Aqueous solutions were prepared using deionized water.
The solution of cation radical ABTS^•+ was produced by incubation of ABTS with potassium persulfate in deionized water for 12–16 h at room temperature in the dark. Radical scavenging capacity of the compounds was analyzed by mixing 10 μL of compound with 240 μL of ABTS^•+ working solution in ethanol (100 μM final concentration). The reaction was monitored for an hour with an interval of 5–10 min. Data are given for 1 h of incubation of compounds with ABTS^•+. The reduction in absorbance was measured spectrophotometrically at 734 nm using a xMark microplate UV/VIS microplate spectrophotometer (Bio-Rad, Hercules, CA, USA).
Ethanol blanks were run in each assay. Values were obtained from three replicates of each sample and three independent experiments. Standard antioxidants Trolox and BHT were used as reference compounds.
Antioxidant capacity as Trolox equivalent (TEAC) values was determined as the ratio between the slopes obtained from the linear correlation of the ABTS radical absorbance with the concentrations of tested compounds and Trolox. […] The compounds were tested in the concentration range of 0.1–100 µM.

[5] = molecular target: T1, Human erythrocyte AChE; assay: biochemical; conditions: mean ± SEM, n = 3; n.a. = not active; read-out: Human Erythrocyte AChE, IC50
Procedure: as §1

[6] = molecular target: T2, Equine serum BChE (Equus caballus, UniProt P81908); assay: biochemical
T2 construct: equine serum BChE; purchased Sigma-Aldrich; host or cells: equine serum
Procedure: as §1

[7] = molecular target: T3, EeAChE PAS (Electrophorus electricus, UniProt O42275); type: binding; conditions: compound concentration 20 µM
T3 construct: Electric eel AChE (EeAChE, type VI-S, lyophilized powder); purchased Sigma-Aldrich type VI-S; host or cells: electric eel
Procedure: Electric eel AChE (EeAChE, type VI-S, lyophilized powder, Sigma-Aldrich, Saint Louis, MO, USA) was used owing to its high degree of purification, high activity, and lower cost compared to human AChE.
The blank contained propidium iodide of the same concentration in 1 mM Tris-HCl buffer pH 8.0. The measurements were carried out in triplicate on a FLUOStar Optima microplate reader, and the results were calculated by formula (1):% Displacement = 100 − (IFAChE+ Propidium + inhibitor / IFAChE + Propidium) × 100(1) where IFAChE + Propidium is the fluorescence intensity of the propidium associated with AChE in the absence of the test compound (taken as 100%), and IFAChE + Propidium + inhibitor is the fluorescence intensity of the propidium associated with AChE in the presence of the test compound.

[8] = molecular target: T2, Equine serum BChE; assay: Kinetic study of BChE inhibition, steady-state inhibition constants; type: biochemical
Procedure: as §2

T2 sequence (P81908 whole entry): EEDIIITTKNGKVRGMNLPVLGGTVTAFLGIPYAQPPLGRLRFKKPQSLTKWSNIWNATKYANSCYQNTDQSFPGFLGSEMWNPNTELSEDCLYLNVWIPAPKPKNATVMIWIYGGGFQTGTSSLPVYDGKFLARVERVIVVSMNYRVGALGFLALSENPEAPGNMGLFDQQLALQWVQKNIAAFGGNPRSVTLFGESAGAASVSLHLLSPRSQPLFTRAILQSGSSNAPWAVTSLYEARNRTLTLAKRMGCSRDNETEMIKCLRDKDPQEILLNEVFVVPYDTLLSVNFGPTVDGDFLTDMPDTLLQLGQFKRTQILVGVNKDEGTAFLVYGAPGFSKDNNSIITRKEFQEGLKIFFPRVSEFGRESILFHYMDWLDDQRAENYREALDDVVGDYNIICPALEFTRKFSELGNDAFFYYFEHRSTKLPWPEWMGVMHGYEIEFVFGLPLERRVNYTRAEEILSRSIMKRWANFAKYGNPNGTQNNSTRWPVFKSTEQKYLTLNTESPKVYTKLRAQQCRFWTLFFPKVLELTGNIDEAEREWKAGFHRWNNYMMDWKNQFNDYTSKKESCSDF
T1 sequence (P22303 32-617 isoform P22303-2 limits assumed): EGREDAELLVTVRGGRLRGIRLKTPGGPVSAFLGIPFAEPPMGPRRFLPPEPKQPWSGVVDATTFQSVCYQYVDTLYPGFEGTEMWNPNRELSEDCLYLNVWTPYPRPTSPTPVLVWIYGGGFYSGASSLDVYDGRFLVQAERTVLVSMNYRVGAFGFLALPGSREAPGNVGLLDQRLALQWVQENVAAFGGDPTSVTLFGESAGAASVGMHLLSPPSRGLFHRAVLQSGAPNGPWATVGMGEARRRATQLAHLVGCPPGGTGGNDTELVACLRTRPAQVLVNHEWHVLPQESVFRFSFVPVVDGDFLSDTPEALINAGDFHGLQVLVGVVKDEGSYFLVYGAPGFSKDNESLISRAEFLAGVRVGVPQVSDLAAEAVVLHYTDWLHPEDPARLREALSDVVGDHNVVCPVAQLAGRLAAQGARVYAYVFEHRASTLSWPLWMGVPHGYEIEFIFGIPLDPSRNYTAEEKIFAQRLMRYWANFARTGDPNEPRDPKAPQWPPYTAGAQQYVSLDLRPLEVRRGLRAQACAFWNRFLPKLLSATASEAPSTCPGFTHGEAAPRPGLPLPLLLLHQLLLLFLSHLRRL
T3 sequence (O42275 24-633): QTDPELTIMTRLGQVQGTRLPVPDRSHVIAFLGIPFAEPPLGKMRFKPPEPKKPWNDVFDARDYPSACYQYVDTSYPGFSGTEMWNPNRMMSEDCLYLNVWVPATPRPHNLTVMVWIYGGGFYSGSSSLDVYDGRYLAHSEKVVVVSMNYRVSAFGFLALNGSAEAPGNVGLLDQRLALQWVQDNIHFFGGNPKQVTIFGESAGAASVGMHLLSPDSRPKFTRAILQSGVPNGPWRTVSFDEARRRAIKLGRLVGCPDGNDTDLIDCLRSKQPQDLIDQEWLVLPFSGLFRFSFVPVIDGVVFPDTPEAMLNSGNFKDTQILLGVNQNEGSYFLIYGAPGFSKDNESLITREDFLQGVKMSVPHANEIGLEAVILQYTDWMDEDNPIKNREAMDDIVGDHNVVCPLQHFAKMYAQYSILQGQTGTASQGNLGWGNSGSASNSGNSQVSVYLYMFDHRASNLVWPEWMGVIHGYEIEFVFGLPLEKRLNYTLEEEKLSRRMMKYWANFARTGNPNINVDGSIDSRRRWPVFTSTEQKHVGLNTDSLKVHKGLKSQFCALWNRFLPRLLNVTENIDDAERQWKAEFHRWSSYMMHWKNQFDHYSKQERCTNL

CC(C)(C)c1cc(C=NCCNc2c3c(nc4ccccc24)CCCCC3)cc(C(C)(C)C)c1O [Compound 7c, 2,6-Di-tert-butyl-4-{[2-(7,8,9,10-tetrahydro-6H-cyclohepta[b]quinolin-11-ylamino)-ethylimino]-methyl}-phenol]
Porcine Liver CES, (%) inhibition [1]: 30.1 ± 2.5%
Ferric Reducing Antioxidant Power, FRAP Units [2]: 0.52 ± 0.04
αKi (noncompetitive component), AChE ([3]; Lineweaver-Burk plots): 4.30 ± 0.02 µM
Ki ([3]; Lineweaver-Burk plots, read-out: Ki (competitive component), AChE): 1.58 ± 0.1 µM
Mechanism of AChE inhibition ([3]; changes in both Km and Vmax): mixed type of reversible inhibition
IC50 [4]: 17.8 ± 1.6 µM
ABTS^•+-Scavenging Activity, TEAC ([4]; ratio of slopes test compound/Trolox): 1.11 ± 0.04
IC50 [5]: 4.03 ± 0.03 µM
Selectivity for BChE ([6]; IC50 AChE / IC50 BChE): 9.6
IC50 ([6]; mean ± SEM, n = 3, n.a. = not active, read-out: Equine Serum BChE, IC50): 0.419 ± 0.04 µM
Displacement of Propidium from EeAChE PAS (%) [7]: 16.3 ± 1.3%
αKi (noncompetitive component), BChE ([8]; Lineweaver-Burk plots): 0.437 ± 0.010 µM
Ki ([8]; Lineweaver-Burk plots, read-out: Ki (competitive component), BChE): 0.164 ± 0.005 µM
Mechanism of BChE inhibition ([8]; changes in both Km and Vmax): mixed type of reversible inhibition
